{"source": "patent US20190321431A1", "about": "“PREPARATION AND APPLICATION OF Syzygium zeylanicum L. EXTRACT” (Tamkang University, priority 2018, published 2019)", "key": {"[1]": {"biological_target": "S. cerevisiae alpha-glucosidase (Saccharomyces cerevisiae, UniProt P53341)", "sequence (P53341 whole entry)": "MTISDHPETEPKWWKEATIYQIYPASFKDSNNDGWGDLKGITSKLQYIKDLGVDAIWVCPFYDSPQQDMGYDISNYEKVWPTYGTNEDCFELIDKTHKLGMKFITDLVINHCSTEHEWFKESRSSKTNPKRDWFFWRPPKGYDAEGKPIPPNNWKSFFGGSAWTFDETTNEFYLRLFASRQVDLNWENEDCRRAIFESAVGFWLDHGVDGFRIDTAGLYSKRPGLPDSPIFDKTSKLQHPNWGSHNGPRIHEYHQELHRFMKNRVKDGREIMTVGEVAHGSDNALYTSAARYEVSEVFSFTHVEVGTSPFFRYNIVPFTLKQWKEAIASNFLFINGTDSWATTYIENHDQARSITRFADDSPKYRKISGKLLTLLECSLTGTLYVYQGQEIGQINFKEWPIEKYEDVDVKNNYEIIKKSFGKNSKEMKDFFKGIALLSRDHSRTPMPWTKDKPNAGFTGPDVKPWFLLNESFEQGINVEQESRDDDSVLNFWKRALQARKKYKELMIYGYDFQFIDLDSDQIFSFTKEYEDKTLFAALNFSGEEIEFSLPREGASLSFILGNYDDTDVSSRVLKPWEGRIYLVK", "assay_type": "biochemical", "procedure": "(§1) The test steps of this example are as follows. Firstly, the Syzygium zeylanicum L. extract was mixed a buffer (potassium phosphate buffer) with 1:9 volume to produce a Syzygium zeylanicum L. extract solution. The Syzygium zeylanicum L. extract solution and alpha-glucosidase (enzyme) were mixed into the buffer at a volume ratio of 1:1. In this example, 15 μl extract solution and the enzyme were separately mixed into 100 μl buffer at 37° C. for 20 minutes. Then, 50 μl matrix p-nitrophenyl glucopyranoside (pNPG) was added at 37° C. for 40 minutes; then 100 μl, 1 mol/L of Na2CO3 was added to stop the reaction. Finally, the absorbance of OD 410 nm was measured, and calculated the inhibition activity of alpha-glucosidase. The above experimental steps was the subsequent enzyme activity test method of the present invention, and only different conditions, such as extraction solvent, reaction temperature or pH were changed.\n(§2) The enzyme activity inhibition test of Example 2 was used in this example. […] The enzymes were S. cerevisiae alpha-glucosidase, rat alpha-glucosidase, B. stearothermophilus alpha-glucoside), porcine pancreatic alpha-amylase, B. subtilis alpha-amylase, and human saliva alpha-amylase."}, "[2]": {"biological_target": "T1, Porcine pancreatic alpha-amylase (Sus scrofa, UniProt P00690)", "T1 sequence (P00690 16-511)": "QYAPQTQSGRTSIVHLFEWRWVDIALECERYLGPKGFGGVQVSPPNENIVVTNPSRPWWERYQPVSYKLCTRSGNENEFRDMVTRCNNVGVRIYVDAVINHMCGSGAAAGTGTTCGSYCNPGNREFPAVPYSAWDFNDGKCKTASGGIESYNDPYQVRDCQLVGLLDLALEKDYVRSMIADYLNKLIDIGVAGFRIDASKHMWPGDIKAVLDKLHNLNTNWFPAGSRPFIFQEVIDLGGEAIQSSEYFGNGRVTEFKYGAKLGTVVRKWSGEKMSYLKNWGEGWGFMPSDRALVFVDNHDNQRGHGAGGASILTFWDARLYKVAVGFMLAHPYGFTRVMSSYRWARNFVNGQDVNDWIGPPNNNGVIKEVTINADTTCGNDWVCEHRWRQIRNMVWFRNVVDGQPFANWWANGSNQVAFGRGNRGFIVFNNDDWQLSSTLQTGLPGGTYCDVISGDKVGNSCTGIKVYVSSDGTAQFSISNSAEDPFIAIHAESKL", "experiment": "Enzyme activity inhibition test, porcine pancreatic alpha-amylase", "assay_type": "biochemical", "procedure": "as §1, §2"}}}
{"smiles": "C[C@H]1O[C@H](O[C@H]2[C@H](O)[C@@H](O)[C@@H](O[C@H]3[C@H](O)[C@@H](O)C(O)O[C@@H]3CO)O[C@@H]2CO)[C@H](O)[C@@H](O)[C@@H]1N[C@H]1C=C(CO)[C@@H](O)[C@H](O)[C@H]1O", "note": "(some centres unmarked) [Acarbose]", "values": [{"measurement": "Maximum Inhibitory Activity", "setting": "[1]", "result": "64 ± 2.3", "unit": "%"}, {"measurement": "Maximum Inhibitory Activity", "setting": "[2]", "result": "91 ± 2.5", "unit": "%"}]}
